ChEMBL document CHEMBL4808221, “Design and Synthesis of Novel c-di-GMP G-Quadruplex Inducers as Bacterial Biofilm Inhibitors” (J Med Chem, 2021)
Calls of active or inactive are those of the source. The rule behind the calls is not given here.

Legend:
[1] = system: Quadruplex DNA; experiment: Induction of c-di-GMP G-quadruplex formation (unknown origin) measured at 300 nanometer by CD spectroscopy; assay type: nucleic-acid assay
[2] = system: c-di-GMP G-quadruplex; experiment: Induction of c-di-GMP G-quadruplex formation in Pseudomonas aeruginosa PAO1 harboring wspF gene mutation assessed as inhibition of biofilm formation at 1.25 uM incubated for 20 hrs by crystal violet staining assay relative to control; assay type: nucleic-acid assay
[3] = system: c-di-GMP G-quadruplex; experiment: Induction of c-di-GMP G-quadruplex formation in Pseudomonas aeruginosa PAO1 harboring wspF gene mutation assessed as inhibition of biofilm formation incubated for 20 hrs by crystal violet staining assay relative to control; assay type: nucleic-acid assay
[4] = system: Pseudomonas aeruginosa; experiment: Antibacterial activity against Pseudomonas aeruginosa PAO1 harboring wspF gene mutation assessed as reduction in bacterial growth at 512 uM by crystal violet staining assay relative to control; assay type: functional, organism-based

| Structure (SMILES) | Activity [1] | inhibition [2] | IC50 [3] | Activity [4] |
| --- | --- | --- | --- | --- |
| C[n+]1c(/C=C/c2cc[nH]c2)ccc2ccccc21 | Active | 22.2% | 9.61 µM | inactive |
| C[n+]1c(/C=C/c2cnccn2)ccc2ccccc21 | Active | 8.36% | > 100 µM | inactive |
| C[n+]1c(/C=C/c2ccc(O)c(F)c2)sc2ccccc21 | inactive | -7.67% | > 100 µM | inactive |
| C[n+]1c(/C=C/c2ccc(F)cc2)sc2ccccc21 | – | 7.72% | > 100 µM | inactive |
| C[n+]1c(/C=C/c2ccc(Br)cc2)ccc2ccccc21 | – | – | > 100 µM | inactive |
| C[n+]1c(/C=C/c2ccc(O)c(O)c2)sc2ccccc21 | Active | 21.7% | 11.5 µM | inactive |
| C[n+]1c(/C=C/c2ccc(O)cc2)sc2ccccc21 | Active | 10.5% | > 100 µM | inactive |
| C[n+]1c(/C=C/c2cnccn2)sc2ccccc21 | inactive | 11.4% | > 100 µM | inactive |
| C[n+]1c(/C=C/c2ccc(F)cc2)ccc2ccccc21 | – | 21.3% | > 100 µM | inactive |
| CN1CCN(c2ccc(/C=C/c3sc4ccccc4[n+]3C)cc2)CC1 | inactive | – | > 100 µM | inactive |
| CN(C)c1ccc(/C=C/c2ccc3ccccc3[n+]2C)cc1 | inactive | – | > 100 µM | inactive |
| CN(C)c1ccc(/C=C/c2sc3ccccc3[n+]2C)cc1 | inactive | -2.67% | > 100 µM | inactive |
| C[n+]1c(/C=C/c2ccc(N)cc2)ccc2ccccc21 | Active | 2.11% | > 100 µM | inactive |
| C[n+]1c(/C=C/c2ccncc2)ccc2ccccc21 | inactive | 13% | > 100 µM | inactive |
| C[n+]1c(/C=C/c2cc(Br)c(O)c(Br)c2)sc2ccccc21 | inactive | – | > 100 µM | inactive |
| C[n+]1c(/C=C/c2ccccc2)sc2ccccc21 | inactive | 19.5% | > 100 µM | inactive |
| C[n+]1c(/C=C/c2ccc(N3CCOCC3)cc2)sc2ccccc21 | inactive | 2.71% | > 100 µM | inactive |

| Structure (SMILES) | Activity [1] | inhibition [2] | IC50 [3] | Activity [4] |
| --- | --- | --- | --- | --- |
| C[n+]1c(/C=C/c2ccc(N)cc2)sc2ccccc21 | – | 14.5% | > 100 µM | inactive |
| CN1CCN(c2ccc(/C=C/c3ccc4ccccc4[n+]3C)cc2)CC1 | inactive | -2.34% | > 100 µM | inactive |
| C[n+]1c(/C=C/c2ccc([N+](=O)[O-])cc2)ccc2ccccc21 | – | – | > 100 µM | inactive |
| C[n+]1c(/C=C/c2cccc(O)c2)ccc2ccccc21 | Active | 29.4% | 6.81 µM | inactive |
| C[n+]1c(/C=C/c2ccc(O)c(F)c2)ccc2ccccc21 | inactive | 4.21% | > 100 µM | inactive |
| C[n+]1c(/C=C/c2ccc(O)cc2)ccc2ccccc21 | Active | 13.4% | > 100 µM | inactive |
| C[n+]1c(/C=C/c2cc(Br)c(O)c(Br)c2)ccc2ccccc21 | inactive | – | – | inactive |
| C[n+]1c(/C=C/c2ccccc2)ccc2ccccc21 | inactive | 18.8% | > 100 µM | inactive |
| C[n+]1c(/C=C/c2cc[nH]c2)sc2ccccc21 | Active | 17.7% | 7.84 µM | inactive |
| C[n+]1c(/C=C/c2ccc(N3CCOCC3)cc2)ccc2ccccc21 | inactive | 1.18% | > 100 µM | inactive |
| C[n+]1c(/C=C/c2ccc([N+](=O)[O-])cc2)sc2ccccc21 | – | – | > 100 µM | inactive |
| COc1ccc(/C=C/c2ccc3ccccc3[n+]2C)cc1 | inactive | -9.62% | > 100 µM | inactive |
| C[n+]1c(/C=C/c2ccc(Br)cc2)sc2ccccc21 | – | -4.77% | > 100 µM | inactive |
| COc1cc(/C=C/c2ccc3ccccc3[n+]2C)ccc1O | Active | 21% | 5.4 µM | inactive |
| COc1ccc(/C=C/c2sc3ccccc3[n+]2C)cc1 | inactive | -4.78% | > 100 µM | inactive |
| C[n+]1c(/C=C/c2ccncc2)sc2ccccc21 | inactive | – | > 100 µM | inactive |
